Assays:
[1] = system: NHE6 or NHE9 knockdown cells; test: MTT cell viability assay in NHE6 or NHE9 knockdown cells; assay type: cell-based, human; conditions: for IC50: Homo sapiens
Description: Lentiviruses and cell transduction pLKO.1-NHE6 and pLKO.1-NHE9 shRNA (Sigma-Aldrich) were co-transfected with ViraPower™ Lentiviral Packaging Mix (Invitrogen) into HEK293T cells according to manufacturer's instructions. Viruses were collected and concentrated by ultracentrifugation 72 h after transfection. HT-1080 and MDA-MB-231 cells were infected overnight with viruses and selected with puromycin (2 μg/ml) on the third day following transduction.
Cells (5×10^3) were cultured in 96-well plates and pre-incubated under 21% O2 or 1% O2 for 4 h following the addition of drugs for 72 h. Cell viability was measured using the 3-(4,5-dimethylthiazol-2-yl)-2,5-diphenyltetrazolium bromide (MTT) dye (Life Technologies) according to manufacturer's instructions. Because hypoxic conditions may affect the reduction of MTT to formazan, incubation of all cell cultures with MTT were performed under normoxic conditions. Each experiment was performed in triplicate and at least three independent experiments were performed. Log-scale dose-response data were plotted on a graph and a three-parameter non-linear regression was applied to determine IC50 values. For calculation of the IC50s, both normoxic and hypoxic drug-treated samples were normalized with their untreated counterpart.

HT1080 cancer cell line = test: MTT assay, doxorubicin with C2 or C2WY→AA peptide; assay type: cell-based; conditions: Homo sapiens
Description: The IC50 (half-maximal inhibitory concentration) values of doxorubicin for HT1080 cancer cell line treated with the C2 peptide ([…] (SEQ ID NO: 7)) or the C2WY→AA peptide ([…] (SEQ ID NO: 60)) were determined in normoxia or hypoxia.
Cells (5×10^3) were cultured in 96-well plates and preincubated under 21% O2 or 1% O2 for 4 h following the addition of doxorubicin (dose response from 10^−1 to 10^5 nM) in the presence or absence of C2 and C2WY→AA peptides (SEQ ID NOs: 7 and 60) for 72 h. Cell viability was measured using the MTT dye (Life Technologies) according to the manufacturer's instructions. Because hypoxic conditions may affect the reduction of MTT to formazan, incubation of all cell cultures with MTT were performed under normoxic conditions. Each experiment was performed in triplicate. Log-scale dose-response data were plotted on a graph and a three-parameter nonlinear regression was applied to determine IC50 values. Data are presented as the mean (nM).

[2] = system: MDA-MB-231 tumor xenografts; test: Chorioallantoic membrane (CAM) xenograft assay, MDA-MB-231; assay type: in vivo, chick embryo; conditions: MDA-MB-231 on CAM
Description: Fertilized eggs from white leghorn chicken were obtained from Public Health Agency of Canada (Nepean, ON). Ethics approval was obtained from the Ethics Committee on Animal Research of the University of Sherbrooke and all experimental procedures involving embryos were conducted in accordance with the regulations of the Canadian Council on Animal Care. Eggs were incubated in an Ova-Easy egg incubator (Brinsea) at 37° C. with 60% humidity. At Day 3, eggs were cracked as described^67. At Day 9, HT-1080 and MDA-MB-231 cell suspensions (1×10^6 and 2×10^6 cells, respectively) were mixed (1:1) with growth factor reduced Matrigel (BD Biosciences) in a total volume of 20 μl. Cell grafts were placed on top of the CAM and eggs were returned to the incubator for 96 h until Day 13 (n>6 chick embryos per cell line). When mentioned, 50 μl of Dox were added topically to the formed tumors (Day 13 after tumor cell grafting). At Day 16, chick embryos were euthanatized by decapitation. Tumors were removed and tumor volumes were calculated using the formula: (Dd^2/3). For RNA quantification, tumors were immediately snap-frozen in liquid nitrogen and kept at −80° C. until RNA extraction using the Trizol reagent.
To determine whether these observations were of relevance to tumor therapy in vivo, the inventors used an ex ovo chorioallantoic membrane (CAM) xenograft model in live chicken embryos^40. MDA-MB-231 or HT-1080 cells, or cells expressing either the NHE6^527-588 competing fragment or its scrambled counterpart were inoculated onto the CAM of 9-day-old chick embryos. After allowing 3 days for cells to engraft, tumors were treated with Doxorubicin or PBS. Four days later, chick embryos were euthanized, and tumors were removed for analysis (FIG. 10A). To first ascertain that tumors implanted in CAM developed hypoxia, total mRNA was extracted from tumors generated by untransfected HT-1080 cells and gene expression of the hypoxic markers CA9, GLUT1 and MCT4 was measured by qPCR. […]

Q: Which results are given for `COc1cccc2c1C(=O)c1c(O)c3c(c(O)c1C2=O)C[C@@](O)(C(=O)CO)C[C@@H]3O[C@H]1C[C@H](N)[C@H](O)[C@H](C)O1` [Dox, doxorubicin]?
A: IC50 ([1]; scrambled shRNA, 1% O2): 0.459 µM; IC50 ([1]; scrambled shRNA, 21% O2): 0.179 µM; IC50 ([1]; shRNA NHE6, 21% O2): 0.421 µM; IC50 ([1]; shRNA NHE9, 21% O2): 0.202 µM; increase in cell resistance to Dox ([1]; NHE6 knockdown, normoxic cells): 2.4 fold; Fold (compared to scrambled 21% O2) ([1]; scrambled shRNA, 1% O2): 2.5 fold; Fold (compared to scrambled 21% O2) ([1]; scrambled shRNA, 21% O2): 1.0 fold; Fold (compared to scrambled 21% O2) ([1]; shRNA NHE6, 21% O2): 2.4 fold; Fold (compared to scrambled 21% O2) ([1]; shRNA NHE9, 21% O2): 1.1 fold; IC50 (HT1080 cancer cell line; HT-1080, Experiment 1, peptide: Vehicle, 1% O2): 0.0838 µM; IC50 (HT1080 cancer cell line; HT-1080, Experiment 1, peptide: Vehicle, 21% O2): 0.016 µM; IC50 (HT1080 cancer cell line; HT-1080, Experiment 1, with C2 0.25 μM, 1% O2): 0.0397 µM; IC50 (HT1080 cancer cell line; HT-1080, Experiment 1, with C2 0.25 μM, 21% O2): 0.0122 µM; IC50 (HT1080 cancer cell line; HT-1080, Experiment 1, with C2 5.00 μM, 1% O2): 0.0391 µM; IC50 (HT1080 cancer cell line; HT-1080, Experiment 1, with C2 5.00 μM, 21% O2): 0.0172 µM; IC50 (HT1080 cancer cell line; HT-1080, Experiment 1, with C2WY→AA 0.25 μM, 1% O2): 0.0991 µM; IC50 (HT1080 cancer cell line; HT-1080, Experiment 1, with C2WY→AA 0.25 μM, 21% O2): 0.0213 µM; IC50 (HT1080 cancer cell line; HT-1080, Experiment 1, with C2WY→AA 5.00 μM, 1% O2): 0.0764 µM; IC50 (HT1080 cancer cell line; HT-1080, Experiment 1, with C2WY→AA 5.00 μM, 21% O2): 0.0164 µM; IC50 (HT1080 cancer cell line; HT-1080, Experiment 2, peptide: Vehicle, 1% O2): 0.07 µM; IC50 (HT1080 cancer cell line; HT-1080, Experiment 2, peptide: Vehicle, 21% O2): 0.0134 µM; IC50 (HT1080 cancer cell line; HT-1080, Experiment 2, with C2 0.25 μM, 1% O2): 0.0306 µM; IC50 (HT1080 cancer cell line; HT-1080, Experiment 2, with C2 0.25 μM, 21% O2): 0.0117 µM; IC50 (HT1080 cancer cell line; HT-1080, Experiment 2, with C2 20.0 μM, 1% O2): 0.0157 µM; IC50 (HT1080 cancer cell line; HT-1080, Experiment 2, with C2 20.0 μM, 21% O2): 0.01 µM; IC50 (HT1080 cancer cell line; HT-1080, Experiment 2, with C2WY→AA 0.25 μM, 1% O2): 0.0989 µM; IC50 (HT1080 cancer cell line; HT-1080, Experiment 2, with C2WY→AA 0.25 μM, 21% O2): 0.0125 µM; IC50 (HT1080 cancer cell line; HT-1080, Experiment 2, with C2WY→AA 20.0 μM, 1% O2): 0.0743 µM; IC50 (HT1080 cancer cell line; HT-1080, Experiment 2, with C2WY→AA 20.0 μM, 21% O2): 0.0109 µM; tumor growth ([2]; 1 μM Dox): unaffected; tumor growth ([2]; 5 μM Dox topical): significantly reduced
